These results are taken from ChEMBL document CHEMBL4814007, “Structure-based discovery of SIAIS001 as an oral bioavailability ALK degrader constructed from Alectinib” (Eur J Med Chem, 2021).

pIC50: −log10 of the molar value. Calls of active or inactive are those of the source. No cut-off for these calls is given here.

The test system of data set [1] is SR. The data set can be described thus: Antiproliferative activity against ALK positive human SR cells. Type of data set: functional, cell-based.
For data set [2], the system named is SR. Put plainly: Induction of cell cycle arrest in human SR cells assessed as increase in accumulation at S phase at 100 nM incubated for 24 hrs. Type of data set: functional, cell-based.
For data set [3], the system named is SR. The data set can be described thus: Induction of cell cycle arrest in human SR cells assessed as increase in accumulation at G1/S phase at 100 nM incubated for 24 hrs. It is filed as functional, cell-based.
For data set [4], the target named is T1, von Hippel-Lindau disease tumor suppressor/ALK tyrosine kinase receptor (Homo sapiens) (UniProt Q9UM73+P40337). The data set can be described thus: Protac activity at VHL1/ALK in human SR cells assessed as increase in ALK degradation at 500 nM by Western blot analysis. It is filed as cell-based. (In western blotting, separated proteins are transferred to a membrane and probed.)
T1 sequence (P40337 whole entry partner): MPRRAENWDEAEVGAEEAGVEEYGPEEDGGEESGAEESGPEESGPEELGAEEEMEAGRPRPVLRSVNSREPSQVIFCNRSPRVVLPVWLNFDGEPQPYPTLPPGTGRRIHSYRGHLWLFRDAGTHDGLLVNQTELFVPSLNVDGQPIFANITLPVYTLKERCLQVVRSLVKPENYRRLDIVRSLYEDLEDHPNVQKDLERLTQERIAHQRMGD
T1 sequence (Q9UM73 19-1620 limits assumed): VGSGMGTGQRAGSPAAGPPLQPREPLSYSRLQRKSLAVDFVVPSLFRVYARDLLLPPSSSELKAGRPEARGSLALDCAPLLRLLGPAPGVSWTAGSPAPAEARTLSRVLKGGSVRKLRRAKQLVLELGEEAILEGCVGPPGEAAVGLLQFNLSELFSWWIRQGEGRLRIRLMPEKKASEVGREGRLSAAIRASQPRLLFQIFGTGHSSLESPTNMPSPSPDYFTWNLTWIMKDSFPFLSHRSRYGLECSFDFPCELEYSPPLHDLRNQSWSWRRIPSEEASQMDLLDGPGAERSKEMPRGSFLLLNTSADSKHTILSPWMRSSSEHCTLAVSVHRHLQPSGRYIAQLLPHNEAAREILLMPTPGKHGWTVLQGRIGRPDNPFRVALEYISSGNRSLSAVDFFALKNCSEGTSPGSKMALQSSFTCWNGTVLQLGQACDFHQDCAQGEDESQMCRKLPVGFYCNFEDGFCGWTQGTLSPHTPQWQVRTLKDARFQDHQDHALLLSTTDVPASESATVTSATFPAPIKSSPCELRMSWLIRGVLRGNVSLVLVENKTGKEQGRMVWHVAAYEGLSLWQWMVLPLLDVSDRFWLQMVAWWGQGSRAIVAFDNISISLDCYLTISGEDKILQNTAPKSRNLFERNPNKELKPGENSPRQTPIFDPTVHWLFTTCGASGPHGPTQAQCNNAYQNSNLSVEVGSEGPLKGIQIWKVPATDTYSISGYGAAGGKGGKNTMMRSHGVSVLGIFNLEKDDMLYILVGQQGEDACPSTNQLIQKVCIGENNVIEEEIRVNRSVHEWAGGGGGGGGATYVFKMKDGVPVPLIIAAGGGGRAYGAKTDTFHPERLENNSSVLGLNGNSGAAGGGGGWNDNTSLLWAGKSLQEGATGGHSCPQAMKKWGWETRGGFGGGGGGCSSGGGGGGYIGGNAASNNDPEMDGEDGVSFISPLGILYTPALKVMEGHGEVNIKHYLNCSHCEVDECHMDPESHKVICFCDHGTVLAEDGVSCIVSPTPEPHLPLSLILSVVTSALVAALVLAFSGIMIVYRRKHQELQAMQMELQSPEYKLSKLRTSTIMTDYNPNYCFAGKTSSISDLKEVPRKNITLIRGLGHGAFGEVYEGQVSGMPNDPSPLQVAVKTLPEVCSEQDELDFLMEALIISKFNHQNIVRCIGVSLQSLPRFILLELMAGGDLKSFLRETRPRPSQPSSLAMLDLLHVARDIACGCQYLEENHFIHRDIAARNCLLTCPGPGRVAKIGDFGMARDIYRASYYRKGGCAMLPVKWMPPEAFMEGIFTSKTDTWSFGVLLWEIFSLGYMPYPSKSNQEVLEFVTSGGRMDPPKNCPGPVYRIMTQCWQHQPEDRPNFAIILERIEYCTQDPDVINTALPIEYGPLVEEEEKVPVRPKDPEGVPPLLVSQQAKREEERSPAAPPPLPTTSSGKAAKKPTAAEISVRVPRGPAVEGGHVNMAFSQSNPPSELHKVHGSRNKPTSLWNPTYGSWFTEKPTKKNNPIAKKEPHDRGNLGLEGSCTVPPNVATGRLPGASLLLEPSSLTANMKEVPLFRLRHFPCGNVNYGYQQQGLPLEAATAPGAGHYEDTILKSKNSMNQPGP

The target in data set [5] is T1, von Hippel-Lindau disease tumor suppressor/ALK tyrosine kinase receptor (Homo sapiens). Put plainly: Protac activity at VHL/ALK in human SR cells assessed as protein abundance at 500 nM by Western blot analysis (reference value: 1). Type of data set: cell-based.
The target is the same in data set [6]. Put plainly: Protac activity at VHL/ALK in human SR cells assessed as protein abundance at 0.5 nM by Western blot analysis (reference value: 1). It is filed as cell-based.
Data set [7] has the same target. Put plainly: Protac activity at VHL/ALK in human SR cells assessed as protein abundance at 0.05 nM by Western blot analysis (reference value: 1). It is filed as cell-based.
Data set [8] has the same target. The data set can be described thus: Protac activity at VHL/ALK in human SR cells assessed as protein abundance at 5 nM by Western blot analysis (reference value: 1). It is filed as cell-based.
For data set [9] the target is unchanged. The data set can be described thus: Protac activity at VHL/ALK in human SR cells assessed as protein abundance at 50 nM by Western blot analysis (reference value: 1). It is filed as cell-based.
The target in data set [10] is T2, Protein cereblon/ALK tyrosine kinase receptor (Homo sapiens, UniProt Q9UM73+Q96SW2). The data set can be described thus: Protac activity at CRBN/ALK in human SR cells assessed as protein abundance at 50 nM by Western blot analysis (reference value: 1). It is filed as cell-based.
Target sequence in this assay (Q96SW2 whole entry partner): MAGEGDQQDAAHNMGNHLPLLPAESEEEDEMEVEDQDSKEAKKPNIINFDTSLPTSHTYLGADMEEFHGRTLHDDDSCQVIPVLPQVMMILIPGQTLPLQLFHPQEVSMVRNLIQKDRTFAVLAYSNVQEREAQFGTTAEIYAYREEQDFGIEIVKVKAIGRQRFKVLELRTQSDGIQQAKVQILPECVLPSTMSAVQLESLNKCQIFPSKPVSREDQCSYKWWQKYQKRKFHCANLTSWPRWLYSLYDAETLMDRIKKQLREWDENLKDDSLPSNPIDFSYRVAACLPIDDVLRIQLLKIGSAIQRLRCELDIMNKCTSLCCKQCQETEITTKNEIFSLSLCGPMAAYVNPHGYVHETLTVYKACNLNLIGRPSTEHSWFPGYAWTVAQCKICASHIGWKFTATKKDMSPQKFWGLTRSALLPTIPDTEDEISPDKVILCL
Target sequence in this assay (Q9UM73 19-1620 limits assumed): as the sequence (Q9UM73 19-1620 limits assumed) above
Data set [11] concerns the target T2, Protein cereblon/ALK tyrosine kinase receptor. Put plainly: Protac activity at CRBN/ALK in human SR cells assessed as protein abundance at 500 nM by Western blot analysis (reference value: 1). It is filed as cell-based.
Target sequence in this assay (Q96SW2 whole entry partner): as the sequence (Q96SW2 whole entry partner) above
Target sequence in this assay (Q9UM73 19-1620 limits assumed): as the sequence (Q9UM73 19-1620 limits assumed) above
For data set [12] the target is unchanged. Put plainly: Protac activity at CRBN/ALK in human SR cells assessed as protein abundance at 5 nM by Western blot analysis (reference value: 1). It is filed as cell-based.
Target sequence in this assay (Q96SW2 whole entry partner): as the sequence (Q96SW2 whole entry partner) above
Target sequence in this assay (Q9UM73 19-1620 limits assumed): as the sequence (Q9UM73 19-1620 limits assumed) above
Data set [13] has the same target. Put plainly: Protac activity at CRBN/ALK in human SR cells assessed as increase in ALK degradation at 50 nM in presence of MLN4924/MG132 by Western blot analysis. It is filed as cell-based.
Target sequence in this assay (Q96SW2 whole entry partner): as the sequence (Q96SW2 whole entry partner) above
Target sequence in this assay (Q9UM73 19-1620 limits assumed): as the sequence (Q9UM73 19-1620 limits assumed) above
For data set [14] the target is unchanged. Put plainly: Protac activity at CRBN/ALK in human SR cells assessed as induction of ALK degradation at 0.05 to 500 nM by Western blot analysis relative to control. It is filed as cell-based. The following applies: dose 0.05-500 nM.
Target sequence in this assay (Q96SW2 whole entry partner): as the sequence (Q96SW2 whole entry partner) above
Target sequence in this assay (Q9UM73 19-1620 limits assumed): as the sequence (Q9UM73 19-1620 limits assumed) above
Data set [15] shares this target. Put plainly: Protac activity at CRBN/ALK in human SR cells assessed as increase in ALK degradation at 200 nM by Western blot analysis relative to control. It is filed as cell-based.
Target sequence in this assay (Q96SW2 whole entry partner): as the sequence (Q96SW2 whole entry partner) above
Target sequence in this assay (Q9UM73 19-1620 limits assumed): as the sequence (Q9UM73 19-1620 limits assumed) above
For data set [16], the system named is SR. Put plainly: Potency index, ratio of alectinib IC50 to test compound IC50 for antiproliferative activity against ALK positive human SR cells. It is filed as functional.
Data set [17] deals with T3, ALK tyrosine kinase receptor (Homo sapiens, UniProt Q9UM73). Put plainly: Inhibition of ALK in human SR cells assessed as reduction in STAT3 phosphorylation at 50 nM. Type of data set: cell-based.
Target sequence in this assay (Q9UM73 19-1620 limits assumed): as above
For data set [18], the target named is T3, ALK tyrosine kinase receptor. Put plainly: Inhibition of ALK phosphorylation in human SR cells at 0.5 nM. Type of data set: cell-based.
Target sequence in this assay (Q9UM73 19-1620 limits assumed): as above
Data set [19] addresses T2, Protein cereblon/ALK tyrosine kinase receptor. The data set can be described thus: Protac activity at CRBN/ALK in human SR cells assessed as induction of ALK degradation by Western blot analysis. It is filed as cell-based.
Target sequence in this assay (Q9UM73 whole entry): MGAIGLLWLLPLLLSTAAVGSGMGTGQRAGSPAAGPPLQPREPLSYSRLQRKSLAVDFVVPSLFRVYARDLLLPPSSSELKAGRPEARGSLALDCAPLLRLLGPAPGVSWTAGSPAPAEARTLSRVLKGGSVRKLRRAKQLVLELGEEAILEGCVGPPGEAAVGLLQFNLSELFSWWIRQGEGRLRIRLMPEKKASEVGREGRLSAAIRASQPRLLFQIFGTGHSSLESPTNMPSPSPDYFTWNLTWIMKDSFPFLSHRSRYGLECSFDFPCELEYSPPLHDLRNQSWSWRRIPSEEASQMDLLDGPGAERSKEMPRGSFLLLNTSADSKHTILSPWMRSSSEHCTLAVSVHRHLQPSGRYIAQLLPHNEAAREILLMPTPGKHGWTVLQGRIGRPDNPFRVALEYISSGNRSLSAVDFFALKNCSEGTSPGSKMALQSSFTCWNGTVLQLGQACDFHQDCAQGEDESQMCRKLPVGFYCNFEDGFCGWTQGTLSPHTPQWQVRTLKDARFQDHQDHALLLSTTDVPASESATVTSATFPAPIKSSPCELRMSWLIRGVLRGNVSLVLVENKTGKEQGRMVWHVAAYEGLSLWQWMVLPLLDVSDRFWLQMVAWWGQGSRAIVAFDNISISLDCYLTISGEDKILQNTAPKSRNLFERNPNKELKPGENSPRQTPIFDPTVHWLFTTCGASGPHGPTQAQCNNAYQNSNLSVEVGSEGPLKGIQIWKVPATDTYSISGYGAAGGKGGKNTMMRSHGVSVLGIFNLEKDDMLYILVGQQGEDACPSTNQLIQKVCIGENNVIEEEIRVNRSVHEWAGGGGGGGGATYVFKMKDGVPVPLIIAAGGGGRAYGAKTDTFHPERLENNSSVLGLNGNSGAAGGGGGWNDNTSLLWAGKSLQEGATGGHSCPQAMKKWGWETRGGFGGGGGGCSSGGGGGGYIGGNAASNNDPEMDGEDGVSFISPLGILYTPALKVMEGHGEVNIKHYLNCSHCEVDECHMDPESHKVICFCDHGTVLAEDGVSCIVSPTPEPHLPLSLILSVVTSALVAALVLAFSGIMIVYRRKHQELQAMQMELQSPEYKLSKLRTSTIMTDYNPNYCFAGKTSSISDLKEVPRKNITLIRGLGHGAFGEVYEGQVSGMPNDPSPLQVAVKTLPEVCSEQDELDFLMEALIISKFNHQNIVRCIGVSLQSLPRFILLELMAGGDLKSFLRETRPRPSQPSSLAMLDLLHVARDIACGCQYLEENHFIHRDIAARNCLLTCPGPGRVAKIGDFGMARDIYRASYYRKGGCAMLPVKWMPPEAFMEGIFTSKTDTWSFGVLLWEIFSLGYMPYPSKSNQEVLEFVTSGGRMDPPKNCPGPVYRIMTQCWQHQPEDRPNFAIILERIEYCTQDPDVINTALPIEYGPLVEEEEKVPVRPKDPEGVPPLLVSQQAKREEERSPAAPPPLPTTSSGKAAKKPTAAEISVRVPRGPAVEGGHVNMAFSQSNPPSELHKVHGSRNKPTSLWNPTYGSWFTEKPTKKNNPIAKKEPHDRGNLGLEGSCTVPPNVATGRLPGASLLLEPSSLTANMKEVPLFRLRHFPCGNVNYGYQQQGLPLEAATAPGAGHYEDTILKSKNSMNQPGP
Target sequence in this assay (Q96SW2 whole entry): as the sequence (Q96SW2 whole entry partner) above
Data set [20] has the same target. Put plainly: Protac activity at CRBN/ALK in human SR cells assessed as increase in ALK degradation at 50 nM in presence of MG132 by Western blot analysis. It is filed as cell-based.
The target is the same in data set [21]. The data set can be described thus: Protac activity at CRBN/ALK in human SR cells assessed as protein abundance at 0.05 nM by Western blot analysis (reference value: 1). Type of data set: cell-based.
For data set [22] the target is unchanged. Put plainly: Protac activity at CRBN/ALK in human SR cells assessed as protein abundance at 0.5 nM by Western blot analysis (reference value: 1). Type of data set: cell-based.
Data set [23] relates to SR. Put plainly: Potency index, ratio of ceritinib IC50 to test compound IC50 for antiproliferative activity against ALK positive human SR cells. Type of data set: functional.
Data set [24] has as its target T3, ALK tyrosine kinase receptor. Put plainly: Inhibition of ALK (unknown origin).
Target sequence in this assay (Q9UM73 whole entry): as the sequence (Q9UM73 whole entry) above
Data set [25] addresses T2, Protein cereblon/ALK tyrosine kinase receptor. The data set can be described thus: Protac activity at CRBN/ALK in human SR cells assessed as increase in ALK degradation at 500 nM by Western blot analysis. Type of data set: cell-based.
The nature of data set [26]: Oral bioavailability in rat at 10 mg/kg. It is filed as ADME, organism-based. The settings on record: in vivo.
Data set [27] in a line: Plasma concentration in rat at 10 mg/kg, po measured after 4 hrs. It is filed as ADME, organism-based.
Data set [28] is described as follows: Cmax in rat at 2 mg/kg, ip. The following applies: in vivo. Type of data set: ADME, organism-based. On the set-up: route intraperitoneal, dose 2 mg/kg.
Data set [29] can be described thus: Toxicity in rat at 10 mg/kg, po assessed as adverse effect. Type of data set: organism-based. The following applies: in vivo.
Data set [30] can be described thus: Stability in liver microsomes (unknown origin). Type of data set: ADME, Microsome.

Take `CCc1cc2c(cc1N1CCC(N3CCOCC3)CC1)C(C)(C)c1[nH]c3cc(C#N)ccc3c1C2=O` [ALECTINIB]: the pIC50 in the data set on SR [1] was 8.47. Besides, the result in the data set on SR [2] and in the data set on SR [3] was Active.
Take `CCc1cc2c(cc1N1CCC(N3CCN(C(=O)CCCCC(=O)NC(C(=O)N4C[C@H](O)C[C@H]4C(=O)NCc4ccc(-c5scnc5C)cc4)C(C)(C)C)CC3)CC1)C(C)(C)c1[nH]c3cc(C#N)ccc3c1C2=O` (single isomer, unassigned): the pIC50 with SR [1] was 7.49. Also, in data set [4], the outcome was Active. The Activity in data set [5] was determined as 0.43; in data set [6], 1.14; in data set [7], 0.96; in data set [8], 1.04; in data set [9], 0.93.
For the compound `CCc1cc2c(cc1N1CCC(N3CCN(C(=O)CNc4cccc5c4CN(C4CCC(=O)NC4=O)C5=O)CC3)CC1)C(C)(C)c1[nH]c3cc(C#N)ccc3c1C2=O` (stereo not drawn), the pIC50 with SR [1] was 9.30; in data set [24] it was 8.33. The Activity in data set [10] was 0.24; in data set [11] it was 0.27; in data set [12], 0.48; in data set [15], above 50%; in data set [21], 0.9; in data set [22], 0.67. Moreover, the result (in data set [13]; in the data set on SR [2]; in data set [20]) was inactive. Also, in data set [14], the Emax turned out to be 87.7%. Also, the Ratio with SR [16] amounted to 6; with SR [23] it was 5. For the same compound, the inhibition result in [17] and in [18] was “inactive” in each case. In addition, in [19], the DC50 turned out to be 6300 nM. In addition, the result (in the data set with SR [3]; in [25]) was Active.
Consider `CCc1cc2c(cc1N1CCC(N3CCN(CCCC#Cc4cccc5c4CN(C4CCC(=O)NC4=O)C5=O)CC3)CC1)C(C)(C)c1[nH]c3cc(C#N)ccc3c1C2=O` (stereo not drawn), for which the pIC50 in the data set with SR [1] is 9.05; in data set [24], 8.48. Further, in data set [26], the bioavailability is 16%. In [27], this compound displayed a concentration at 4 h of 100 ng/mL. The Activity in [10] was 0.37; in data set [11] it was 0.37; in data set [12], 0.56; in data set [29], “Non-Toxic”; in data set [21], 1.03; in [22] it was 0.92. In [28], this compound yielded a Cmax of 83.5 ng/mL. The outcome (in data set [13]; in the data set on SR [2]; in data set [20]) was inactive. The maximal effect (Emax) in [14] was found to be 70.3%. In addition, the inhibition entry in data set [17] and in data set [18] was “Active” each time. Further, the Stabilty result in data set [30] is on record as “Stable”. Also, in data set [19], the DC50 was determined as 3900 nM. The Ratio with SR [23] was 5. The result (with SR [3]; in data set [25]) was Active.
In the data set on SR [1], `CCc1cc2c(cc1N1CCC(N3CCN(C(=O)CCCCCCCCC(=O)NC(C(=O)N4C[C@H](O)C[C@H]4C(=O)NCc4ccc(-c5scnc5C)cc4)C(C)(C)C)CC3)CC1)C(C)(C)c1[nH]c3cc(C#N)ccc3c1C2=O` (single isomer, unassigned) had a pIC50 of 7.74. The result in [4] was Active.

A word on the pIC50: it is the negative decadic logarithm of the IC50, by convention in mol/L. Low readings indicate a large IC50, high ones a small IC50. Usually Emax stands for the greatest response seen or fitted, relative to the assay's reference. As a reminder, the DC50 is the concentration at which degradation of the target reaches its halfway point. As a reminder, the bioavailability is dose-corrected exposure relative to a reference, in per cent. Low values mean poor availability, high ones good availability. In general, Cmax refers to the maximum level reached in the sampled fluid or tissue.
